Results on two compounds are retold here after US20260357222A1, “GROWTH-BASED SELECTION PLATFORM FOR NONCANONICAL COFACTOR OXIDIZING ENZYMES” (The Regents of the University of California, priority 2022, published 2026).

For experiment [1], the target named is T1, Lactobacillus pentosus NADH oxidase (Lp Nox), wild type, SEQ ID NO:1 (Lactiplantibacillus pentosus, UniProt A0A0U3FIG2).
T1 sequence (A0A0U3FIG2 1-450): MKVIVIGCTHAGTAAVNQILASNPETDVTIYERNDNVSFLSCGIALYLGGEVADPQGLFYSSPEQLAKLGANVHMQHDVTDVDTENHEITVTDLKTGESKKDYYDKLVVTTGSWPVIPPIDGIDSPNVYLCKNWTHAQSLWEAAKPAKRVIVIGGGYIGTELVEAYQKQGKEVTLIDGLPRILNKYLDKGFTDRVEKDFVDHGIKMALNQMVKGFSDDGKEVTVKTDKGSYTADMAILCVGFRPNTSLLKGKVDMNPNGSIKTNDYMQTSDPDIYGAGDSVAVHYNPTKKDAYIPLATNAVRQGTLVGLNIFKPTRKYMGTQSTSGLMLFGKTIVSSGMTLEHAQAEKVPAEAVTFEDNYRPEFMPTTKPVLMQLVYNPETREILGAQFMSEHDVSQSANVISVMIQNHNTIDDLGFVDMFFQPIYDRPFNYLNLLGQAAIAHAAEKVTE
Briefly: Lp Nox enzymatic kinetics, cofactor oxidation at 340 nm, wild type. The settings on record: role: cofactor, 50 mM Tris-HCl pH 7.0, 37 °C. Format: biochemical. The protocol:
(§1) Protein Expression and Purification. Lp Nox wild type or variants (see Table 1) are expressed with E. coli BL21 (DE3) with plasmids inoculated in 2× YT media with 200 mg L^−1 ampicillin. Expression was carried out by inoculation of 20 mL 2× YT media supplied with antibiotics and an overnight culture incubated at 30 °C, 250 RPM with an OD600nm of 0.072. Cells were grown at 37 °C in 50 mL conical tubes, and the cultures were induced with 0.5 mM IPTG at an OD600nm of 0.6-1.0. The 20 mL culture was then incubated at 27 °C and 250 RPM for 24 h. After 24 h, cells were harvested for protein extraction (centrifugation at 4 °C, 3000 RPM, 20 min). Cell pellets were resuspended in Zymo His-Binding buffer (Zymo Research Corporation) supplied with 0.15 mM FAD, 1 μL/mL DNase (Sigma Aldrich) and 1 mM InSolution [COMPOUND LEFT OUT] (Sigma Aldrich). The resuspended cell mixture was added to 0.5 mL of 0.1 mm glass beads (Biospec) and homogenized using a benchtop homogenizer (MP Biomedicals). Cell debris was separated from the crude extract by centrifugation at 4 °C and 15,000 RPM for 5 min. Protein purification was performed using His-Spin Protein Miniprep (Zymo Research Corporation) according to the manufacturer's instructions. The concentrations of purified protein were quantified by a Bradford assay using BSA as a standard. Purified protein was stored in aliquots with 20% (v/v) glycerol at −80 °C.
NMNH generation. NMNH generation was performed in 20 mL reaction volumes in a 50 ml conical tube containing 200 mM Tris-Cl at pH 8.0, 100 mM sodium chloride, 3 mM potassium chloride, 200 mM glucose, and 20 m MNMN^+. The reaction was initiating by spiking 500 ng of purified Bacillus subtilis glucose dehydrogenase I195R8. The reaction was incubated at 30 °C until reaction progression stopped, approximately 6 h. Reaction progression was monitored by observing the increase in light absorption at 340 nm, corresponding to the reduction of NMN^+ to NMNH. Then, the solution was filtered through a 15 kD cutoff filter to remove the protein. […] The elution step was repeated until no NMNH remained in the flow through, as monitored by light absorption at 340 nm. […]
Lp Nox Enzymatic Assays and Kinetic study with NMNH, NAD(P) H. The Lp Nox activity (see FIG. 4A) was determined by the change in light absorption at 340 nm at 37 °C in 50 mM Tris-Cl buffer pH 7.0. […] The absorbance change at 340 nm for NAD(P) H and NMNH was detected using a SpectraMax M3 microplate reader. […] Cofactor concentration over 2 mM could not be measured accurately on M3 spectrometer due to detector absorbance saturation at 340 nm.

Experiment [2] has as its target T2, Lactobacillus pentosus NADH oxidase (Lp Nox) variant LP-3 (I158S-D177W-G178E-V240L), SEQ ID NO:6 (Lactiplantibacillus pentosus, UniProt A0A0U3FIG2, D177W/G178E/I158S/V240L).
T2 construct: variant LP-3
T2 sequence (A0A0U3FIG2 1-450 I158S/D177W/G178E/V240L): T1 sequence (A0A0U3FIG2 1-450) with I158S, D177W, G178E, V240L
Briefly: Lp Nox enzymatic kinetics, cofactor oxidation at 340 nm, variant LP-3. Format: biochemical. To be noted: role: cofactor, 50 mM Tris-HCl pH 7.0, 37 °C. On the procedure:
as §1
NMNH generation. NMNH generation was performed in 20 mL reaction volumes in a 50 ml conical tube containing 200 mM Tris-Cl at pH 8.0, 100 mM sodium chloride, 3 mM potassium chloride, 200 mM glucose, and 20 m MNMN^+. The reaction was initiating by spiking 500 ng of purified Bacillus subtilis glucose dehydrogenase I195R8. The reaction was incubated at 30 °C until reaction progression stopped, approximately 6 h. Reaction progression was monitored by observing the increase in light absorption at 340 nm, corresponding to the reduction of NMN^+ to NMNH. Then, the solution was filtered through a 15 kD cutoff filter to remove the protein. To purify the NMNH, the flowthrough was mixed with HPLC-grade acetonitrile to a final concentration of 70% acetonitrile, and the solution was passed through a Phenomenex Strata NH2 (2 g/12 mL, 55 μm, 70 Å) solid phase extraction column. The column was washed twice with 4 mL of 70:30 acetonitrile:water, then twice with 4 mL of 50:50 acetonitrile:water, twice with 4 mL of 30:70 acetonitrile:water, twice with 4 mL of nanopurified water, and finally twice with 4 mL of methanol. To elute the NMNH from the column, 2 mL of a solution containing 50:50 ammonium hydroxide:methanol was added to the column and incubated for 3 minutes before eluting. The elution step was repeated until no NMNH remained in the flow through, as monitored by light absorption at 340 nm. The elution fractions containing NMNH were pooled and aliquoted in 1 mL volumes into clean tubes. The solutions were dried over air and stored at −80 °C until use.
Lp Nox Enzymatic Assays and Kinetic study with NMNH, NAD(P) H. The Lp Nox activity (see FIG. 4A) was determined by the change in light absorption at 340 nm at 37 °C in 50 mM Tris-Cl buffer pH 7.0. The reactions were started by adding the purified protein to the prewarmed 37 °C assay mixture containing 0.3 mM of respective cofactor. The absorbance change at 340 nm for NAD(P) H and NMNH was detected using a SpectraMax M3 microplate reader. For kinetics parameter determination (see Table 2), cofactor concentrations were varied from 0 to 2 mM and the results were fitted to the standard Michaelis-Menten equation or Lineweaver-Burk equation to acquire catalytic efficiencies (kcat/Km) when the cofactor concentration tested could not saturate the enzyme activity or during the presence of substrate inhibition. Cofactor concentration over 2 mM could not be measured accurately on M3 spectrometer due to detector absorbance saturation at 340 nm.

Where [3] appears, read: enzyme could not be saturated with the cofactor concentrations tested.

Changes are numbered by the printed parent chain.

Take `NC(=O)C1=CN([C@@H]2O[C@H](COP(=O)(O)O)[C@@H](O)[C@H]2O)C=CC1` [NMNH, nicotinamide mononucleotide]: the “kcat/Km (catalytic efficiency for NMNH)” value amounted to 2300 ± 100 M⁻¹ s⁻¹ in experiment [1] (setting [3]) and 10000 ± 1000 M⁻¹ s⁻¹ in experiment [2] (setting [3]).

Broadly, the Km is the substrate concentration at which the rate is half of its maximum. Usually kcat stands for the number of substrate molecules converted per active site and unit of time at saturation. Usually kcat/Km stands for the turnover number divided by the Michaelis constant. For the compound `NC(=O)C1=CN([C@@H]2O[C@H](COP(=O)(O)OP(=O)(O)OC[C@H]3O[C@@H](n4cnc5c(N)ncnc54)[C@H](OP(=O)(O)O)[C@@H]3O)[C@@H](O)[C@H]2O)C=CC1` [NADPH, nicotinamide adenine dinucleotide phosphate], in experiment [1] (apparent, cofactor 0 to 2 mM), the Km came out at 1900 ± 200 µM, the kcat amounted to 18 ± 2 s⁻¹ and the kcat/Km is 9300 ± 200 M⁻¹ s⁻¹. In experiment [2] (apparent, cofactor 0 to 2 mM), the Km came out at 1100 ± 100 µM, the kcat came to 28 ± 1 s⁻¹ and the kcat/Km stood at 26000 ± 1000 M⁻¹ s⁻¹.
